In patent publication US20050215562A1, “Methods for treating protein aggregation disorders” (priority 2003, published 2005):

Experiments:
NAC peptide [1] = biological target: T1, NAC peptide (Homo sapiens, UniProt P37840); assay: Electron microscopy (EM) analysis of NAC fiber formation in the fibrillogenesis assay; type: biochemical
T1 construct: a 35 amino acid peptide corresponding to residues 61 to 95 of the α-synuclein protein; made in house; host or cells: chemical solid-phase peptide synthesis (Fmoc), not expressed
Description: (§1) Fibrillogenesis assays were employed to identify test compounds that inhibit NAC's ability to assemble into fibers. Following removal of HFIP by evaporation under N2 gas, 20 μM NAC peptide is incubated in the assay buffer (0.02M Tris, 0.15 M NaCl, 0.005% NaN3, 100 uM EDTA) at 37° C. in a Perkin-Elmer HTS 7000 plus microplate reader with shaking for 1 minute every twenty minutes. The presence of fibers can be monitored by three different methods.
(§2) The following assays were set up in clear polystyrene 96 well microplates by combining 125 μL of 40 μM NAC peptide with 125 μL of 200 μM test compound in 0.02M Tris, 0.15 M NaCl, 0.005% NaN3, […]. The microplates were sealed with a plastic sheet and incubated at 37° C. in a Perkin-Elmer HTS 7000 microplate reader with shaking for 1 minute, every 20 minutes. • Thioflavin T Analysis. To perform this assay 5 μM Thioflavin T is added to the NAC assembly conditions described above. The fluorescence is measured at 430 excitation/485 emission every twenty minutes with a Perkin-Elmer HTS microplate reader for the duration of the assay. […] This assay allows for the identification of compounds that can inhibit this increase in fluorescence upon incubation. • Turbidity Analysis. Alternatively, NAC peptide that has been incubated with test compounds in the appropriate assembly conditions can be analyzed by reading the absorbance at 405 nm to follow the turbidity of the solution which is also an indication of the formation of aggregates. • Circular Dichroism (CD) Analysis. […] This assay allows for the identification of compounds that can prevent NAC from adopting a β-sheet/β-turn conformation upon incubation. • At the appropriate time point, during the incubation, the test solutions were transferred to 0.1-cm path length quartz cuvettes and scanned by CD spectroscopy between 190 and 260 nm, with a resolution of 0.1 nm and a bandwidth of 1 nm using a Jasco J-715 spectropolarimeter at 37° C. […] At the time point at which CD scans are performed a 3 μl aliquot is removed from the sample, spotted onto a Formvar grid and then negatively stained with 4% uranyl acetate. The grids were examined for the presence of fibrils and amorphous aggregates using a JOEL 2000 transmission electron microscope at a 25,000 × magnification. This assay can be used to confirm the absence of fibers in the presence of compounds which inhibit NAC assembly by ThT and CD. The final results were obtained by averaging 10 complete sectors.
Analysis by Electron Microscopy: The fibrillogenesis assays performed for CD analysis were also spotted for EM. The electron micrographs are visually examined and a score is assigned as follows. Briefly, 10 representative frames from a 300-mesh grid are analyzed and given a score representing the amount of fibers formed in the sample as compared to a micrograph with NAC alone without a test compound (100% fibers). A score was assigned based on this analysis on a scale from 0% to 100% fibers: (−) indicates an observation of less than about 25% fibers; (+) indicates about 25% fibers; (++) about 50% fibers; (+++) indicates about 75% fibers; and (++++) 100% fibers. […]

NAC peptide [2] = biological target: T1, NAC peptide; assay: Circular dichroism (CD) analysis of NAC peptide conformation after incubation with test compounds (fibrillogenesis assay); type: biochemical; details: NAC incubated in presence of heparin; minimum at 218 nm typical of β-sheet
Description: 2 mM Solutions were prepared in TBSA buffer (Tris 0.02 M, NaCl 0.15 M, NaN3 0.005%, pH 7.4) and stored at 4° C. For the assays, compounds were diluted to the desired concentrations in TBSAE buffer (Tris 0.02 M, NaCl 0.15 M, NaN3 0.005%, EDTA 100 μM, pH 7.4) and combined with the NAC peptides.
as §1, §2
For compounds that have been tested multiple times, a compound is classified as active if it prevents the transition to β-turn/β-sheet in 50% or more of the trials.

Compound | Activity (EM) (NAC peptide [1]) | EM Score (NAC peptide [1]; amount of fibers compared to NAC alone (100% fibers), 10 frames of a 300-mesh grid) | Effect on NAC conformation by CD (NAC peptide [2]) | Appearance of NAC fibers by EM (NAC peptide [1]; NAC in the presence of heparin)
O=S(=O)(O)CC(O)CNC1CCCCC1 (stereo not shown) [drawing 64] | No | +++ ((+++) indicates about 75% fibers) |  | 
heparin [reference compound] |  |  | promotes a conformational change | longer and more interwined fibers
